Results: the NIST ThermoML archive (doi:10.1007/s10765-010-0737-5)
± gives the expanded uncertainty stated by the source.

Experiment: xn = mol fraction of the nth substance listed
Conditions: Liquid; for mass density: 101.3 kPa; for viscosity: 101 kPa, Capillary tube (Ostwald / Ubbelohde) method

CCC(C)Cl (centres undefined) [2-chlorobutane] + CC(C)OC(C)C
mass density (298.15 K, x1 = 0.0519): 724.535 ± 0.94 kg/m3 | mass density (298.15 K, x1 = 0.0988): 730.22 ± 0.93 kg/m3 | mass density (298.15 K, x1 = 0.2006): 742.995 ± 0.9 kg/m3 | mass density (298.15 K, x1 = 0.3211): 758.802 ± 0.87 kg/m3 | mass density (298.15 K, x1 = 0.4201): 772.485 ± 0.84 kg/m3 | mass density (298.15 K, x1 = 0.532): 788.75 ± 0.81 kg/m3 | mass density (298.15 K, x1 = 0.6244): 802.882 ± 0.78 kg/m3 | mass density (298.15 K, x1 = 0.726): 819.123 ± 0.74 kg/m3 | mass density (298.15 K, x1 = 0.8163): 834.307 ± 0.71 kg/m3 | mass density (298.15 K, x1 = 0.8817): 845.724 ± 0.69 kg/m3 | mass density (298.15 K, x1 = 0.9634): 860.57 ± 0.66 kg/m3 | mass density (298.15 K, x1 = 1): 867.474 ± 0.65 kg/m3 | viscosity (303.15 K, x1 = 0.0519): 0.3033 ± 0.0035 mPa·s | viscosity (303.15 K, x1 = 0.0988): 0.3061 ± 0.0035 mPa·s | viscosity (303.15 K, x1 = 0.2006): 0.3127 ± 0.0035 mPa·s | viscosity (303.15 K, x1 = 0.3211): 0.3212 ± 0.0036 mPa·s | viscosity (303.15 K, x1 = 0.4201): 0.3286 ± 0.0037 mPa·s | viscosity (303.15 K, x1 = 0.532): 0.3375 ± 0.0038 mPa·s | viscosity (303.15 K, x1 = 0.6244): 0.3454 ± 0.0038 mPa·s | viscosity (303.15 K, x1 = 0.726): 0.3545 ± 0.0039 mPa·s | viscosity (303.15 K, x1 = 0.8163): 0.3628 ± 0.004 mPa·s | viscosity (303.15 K, x1 = 0.8817): 0.369 ± 0.004 mPa·s | viscosity (303.15 K, x1 = 0.9634): 0.3767 ± 0.0041 mPa·s | viscosity (303.15 K, x1 = 1): 0.38 ± 0.0041 mPa·s | mass density (303.15 K, x1 = 0.0519): 719.276 ± 0.95 kg/m3 | mass density (303.15 K, x1 = 0.0988): 724.919 ± 0.94 kg/m3 | mass density (303.15 K, x1 = 0.2006): 737.649 ± 0.91 kg/m3 | mass density (303.15 K, x1 = 0.3211): 753.411 ± 0.88 kg/m3 | mass density (303.15 K, x1 = 0.4201): 767.06 ± 0.85 kg/m3 | mass density (303.15 K, x1 = 0.532): 783.263 ± 0.82 kg/m3 | mass density (303.15 K, x1 = 0.6244): 797.355 ± 0.79 kg/m3 | mass density (303.15 K, x1 = 0.726): 813.555 ± 0.76 kg/m3 | mass density (303.15 K, x1 = 0.8163): 828.698 ± 0.72 kg/m3 | mass density (303.15 K, x1 = 0.8817): 840.084 ± 0.7 kg/m3 | mass density (303.15 K, x1 = 0.9634): 854.895 ± 0.67 kg/m3 | mass density (303.15 K, x1 = 1): 861.779 ± 0.66 kg/m3 | viscosity (308.15 K, x1 = 0.0519): 0.2887 ± 0.0033 mPa·s | viscosity (308.15 K, x1 = 0.0988): 0.2915 ± 0.0034 mPa·s | viscosity (308.15 K, x1 = 0.2006): 0.2977 ± 0.0034 mPa·s | viscosity (308.15 K, x1 = 0.3211): 0.3058 ± 0.0035 mPa·s | viscosity (308.15 K, x1 = 0.4201): 0.3127 ± 0.0035 mPa·s | viscosity (308.15 K, x1 = 0.532): 0.3212 ± 0.0036 mPa·s | viscosity (308.15 K, x1 = 0.6244): 0.3287 ± 0.0037 mPa·s | viscosity (308.15 K, x1 = 0.726): 0.3374 ± 0.0038 mPa·s | viscosity (308.15 K, x1 = 0.8163): 0.3453 ± 0.0038 mPa·s | viscosity (308.15 K, x1 = 0.8817): 0.3511 ± 0.0039 mPa·s | viscosity (308.15 K, x1 = 0.9634): 0.3584 ± 0.0039 mPa·s | viscosity (308.15 K, x1 = 1): 0.3615 ± 0.004 mPa·s | mass density (308.15 K, x1 = 0.0519): 713.939 ± 0.96 kg/m3 | mass density (308.15 K, x1 = 0.0988): 719.569 ± 0.95 kg/m3 | mass density (308.15 K, x1 = 0.2006): 732.261 ± 0.92 kg/m3 | mass density (308.15 K, x1 = 0.3211): 747.973 ± 0.89 kg/m3 | mass density (308.15 K, x1 = 0.4201): 761.571 ± 0.86 kg/m3 | mass density (308.15 K, x1 = 0.532): 777.737 ± 0.83 kg/m3 | mass density (308.15 K, x1 = 0.6244): 791.784 ± 0.8 kg/m3 | mass density (308.15 K, x1 = 0.726): 807.944 ± 0.77 kg/m3 | mass density (308.15 K, x1 = 0.8163): 823.046 ± 0.74 kg/m3 | mass density (308.15 K, x1 = 0.8817): 834.402 ± 0.71 kg/m3 | mass density (308.15 K, x1 = 0.9634): 849.179 ± 0.68 kg/m3 | mass density (308.15 K, x1 = 1): 856.044 ± 0.67 kg/m3 | viscosity (313.15 K, x1 = 0.0519): 0.2752 ± 0.0032 mPa·s | viscosity (313.15 K, x1 = 0.0988): 0.2779 ± 0.0033 mPa·s | viscosity (313.15 K, x1 = 0.2006): 0.2838 ± 0.0033 mPa·s | viscosity (313.15 K, x1 = 0.3211): 0.2914 ± 0.0034 mPa·s | viscosity (313.15 K, x1 = 0.4201): 0.2981 ± 0.0034 mPa·s | viscosity (313.15 K, x1 = 0.532): 0.3062 ± 0.0035 mPa·s | viscosity (313.15 K, x1 = 0.6244): 0.3133 ± 0.0036 mPa·s | viscosity (313.15 K, x1 = 0.726): 0.3215 ± 0.0036 mPa·s | viscosity (313.15 K, x1 = 0.8163): 0.329 ± 0.0037 mPa·s | viscosity (313.15 K, x1 = 0.8817): 0.3345 ± 0.0037 mPa·s | viscosity (313.15 K, x1 = 0.9634): 0.3413 ± 0.0038 mPa·s | viscosity (313.15 K, x1 = 1): 0.3443 ± 0.0038 mPa·s | mass density (313.15 K, x1 = 0.0519): 708.573 ± 0.97 kg/m3 | mass density (313.15 K, x1 = 0.0988): 714.181 ± 0.96 kg/m3 | mass density (313.15 K, x1 = 0.2006): 726.833 ± 0.93 kg/m3 | mass density (313.15 K, x1 = 0.3211): 742.484 ± 0.9 kg/m3 | mass density (313.15 K, x1 = 0.4201): 756.049 ± 0.87 kg/m3 | mass density (313.15 K, x1 = 0.532): 772.166 ± 0.84 kg/m3 | mass density (313.15 K, x1 = 0.6244): 786.18 ± 0.81 kg/m3 | mass density (313.15 K, x1 = 0.726): 802.287 ± 0.78 kg/m3 | mass density (313.15 K, x1 = 0.8163): 817.349 ± 0.75 kg/m3 | mass density (313.15 K, x1 = 0.8817): 828.683 ± 0.72 kg/m3 | mass density (313.15 K, x1 = 0.9634): 843.42 ± 0.69 kg/m3 | mass density (313.15 K, x1 = 1): 850.266 ± 0.68 kg/m3
